The text below walks through data of US5236942A, “5-aryl-4-alkyl-3H-1,2,4-triazole-3-thiones useful in the treatment of Altzheimer's dementia” (Merrell Dow Pharmaceuticals Inc., priority 1992, dated 1993).

SMILES strings stand for the structures. Like-named read-outs stand apart in the source and are kept apart here.

Data set [1] relates to high affinity choline uptake (HACU). To be noted: cited from earlier work; for effect on HACU: acute administration i.p.; for effect on cortical or hippocampal HACU: after in vivo administration.
The test system of data set [2] is scopolamine-induced memory deficit in rats. Nature of the data set: Working memory in the T-maze, rats treated with scopolamine. In kind it is in vivo, Male Sprague-Dawley rats. As to conditions: for Number of errors (12 = chance response), T-maze: 24 trials, mean ± SEM, n = 12. How it is done:
(§1) The maze used has the shape of a T with alleys 16 cm wide and side walls 20 cm high, the main arm being 65 cm long and the two side arms 45 cm long. Male Sprague-Dawleyrats are maintained on a 23 hour food deprivation schedule and are tested each day (Monday-Friday), each trial in the maze consisting of two runs. The rat starts at the end of the main arm and runs to the choice point where it must turn either left or right. The first is a forced run where one arm of the T-maze has been blocked off at the choice point. The remaining arm has a bowl of sweetened condensed milk as reward. On the second run the rat has a free choice of arms and learns by experience that food reward is to be found down the arm not visited on the first run. Trials are run at 30-second intervals, and the arm choice on the forced run is varied at random between trials. Arm entry is defined by the rat's placing all four paws in the arm, and incorrect selection of the arm is scored as an error. Noncompleted trials, where the rat has not made a choice within 3 minutes, are included as errors.5-(3-Fluorophenyl)-2,4-dimethyl-3H-1,2,4-triazole-3-thione is administered one hour before the first trial of each session. Impairment of performance is achieved for testing the compound of this invention in two different ways.
In the trials summarized in Table 2, the amnestic muscarinic antagonist scopolamine is administered subcutaneously at a dose of 0.15 mg/kg 15-minutes before the first trial, and there is a delay of 5-10 seconds after the forced run before the second run of the trial. […] All values are expressed as the mean number of errors per block of twenty-four trials with groups of 12 animals±the standard error of the mean. For this test, the number of errors expected by random response, i.e., the selection of the correct arm 50% of the time, is 12.

Another data set deals with hippocampal slice. Nature of the data set: Electrophysiological assay of long term potentiation of the hippocampal slice. From the text: (§2) Experiments also compared 5-(3-fluorophenyl)-2,4-dimethyl-3H-1,2,4-triazole-3-thione, a compound of formula I, with a series of β-carbolines in an electrophysiological assay system involving long term potentiation of the hippocampal slice.

Data set [3] has as its system time dependent memory deficit in rats. As to the kind of experiment: Working memory in the T-maze, rats with 0- or 60-second delay. To be noted: for Number of errors (5 = chance response), 0-Second Delay / Number of errors (5 = chance response), 60-Second Delay: ten trials, mean ± SEM, n = 12. It is filed as in vivo, Male Sprague-Dawley rats. How it is done: as §1, with “The activity of these compounds in enhancing memory can also be confirmed in experiments that study working memory in rats by evaluating the acquisition of alternation behavior in a T-maze. The maze” for “The maze”, “an error. […] Impairment of” for “an error. Noncompleted trials, where the rat has not made a choice within 3 minutes, are included as errors.5-(3-Fluorophenyl)-2,4-dimethyl-3H-1,2,4-triazole-3-thione is administered one hour before the first trial of each session. Impairment of”, “different ways. […] The table compares the number of incorrect responses by rats tested in trials wherein there is no delay after the forced run and trials wherein there is a 60-second delay. […] For this test, the number of errors expected by random response, i.e., the selection of the correct arm 50% of the time, is 5.” for “different ways.”

Data set [4] has as its system carrier that mediates choline transport ([3H] hemicholinium-3 binding in rat brain membranes). As to the kind of experiment: [3H] hemicholinium-3 binding in rat brain membranes (cortex) after i.p. dosing of rats. Also on record: species or system Male Sprague-Dawley rats. As to conditions: for Bmax ± SEM of [3H] hemicholinium-3 binding / Kd: rat brain cortex; for Kd: Kd of the radioligand, read-out: Kd ± SEM of [3H] hemicholinium-3 binding. From the text: Another measure of cholinergic activity is the binding of the radioligand [^3 H] hemicholinium-3, ([^3 H] HC-3) which labels the carrier that mediates choline transport. […] Therefore, the stimulation of [^3 H] HC-3 binding in vitro after treatment with drugs in vivo is also a marker for increased cholinergic activity, predictive of enhanced cognition in treated animals.
The pharmacological properties of these compounds as enhancers of memory and cognition and their relative potencies may be measured through their effect on neuro-transmitters in the brain. Since drugs that block GABA inhibition in the cholinergic neurons of the basal forebrain nuclei will stimulate cholinergic firing, thus stimulating memory, the capacity of the drugs to enhance cognition can be assessed by measuring the increase in cholinergic firing rate. The increase in cholinergic firing rate is measured indirectly by measuring choline uptake or [^3 H] hemicholinium-3 binding in brain cells taken from treated animals.
To test for [^3 H] hemicholinium-3 binding in brain cells from the brain cortex, drugs were dissolved in saline by sonication. Male Sprague-Dawley rats were dosed i.p. and sacrificed by decapitation 60 min after injection. The brains were removed and dissected, and tissue was homogenized in 20 volumes of ice-cold buffer and stored frozen until assayed. Binding was measured by incubating the tissue with varying concentrations of [^3 H]hemicholinium-3 in an isotonic Tris buffer (pH 7.4) for 60 min at room temperature. The incubation was terminated by rapid filtration through Whatman GF/B filters. After drying, the filters were placed in scintillation cocktail and radioactivity was determined using a Beckman scintillation counter. In two experiments, the values for the Kd and Bmax were determined by nonlinear curve-fitting and the average values for samples of 3 or more animals reported.

For the next data set, the system named is memory in mice. As to conditions: versus normal vehicle-treated control mice; cited from earlier work.
The test system of data set [5] is hippocampal high affinity choline uptake. To be noted: mice; cited from earlier work.
For the next data set, the system named is benzodiazepine receptor. Nature of the data set: Inverse agonism at the benzodiazepine receptor, in the hippocampal slice tests. It is filed as cell-based. As to conditions: in these tests.
Excerpt: as §2

Setting [6] is: 1 mg/kg i.p., n = 4, 60 min after injection.
Setting [7] is: 2.5 mg/kg i.p., n = 4, 60 min after injection.
Where [8] appears, read: higher concentrations / high doses.
Where [9] appears, read: 5 mg/kg i.p., n = 7, 60 min after injection.
[10] abbreviates: 25 mg/kg i.p., n = 3, 60 min after injection.
The mark [11] stands for this setting: 25 mg/kg i.p., n = 3, vs saline (Bmax 11.9).

For `CN(C)CCC=C1c2ccccc2CCc2ccccc21` [amitriptyline], the “effect on HACU” value in data set [1] is given as “no effect”.

`CN1[C@@H]2C[C@@H](OC(=O)[C@H](CO)c3ccccc3)C[C@H]1[C@@H]1O[C@@H]12` [Scopolamine, reference compound]: the “Number of errors (12 = chance response), T-maze” value in data set [2] (scopolamine 0.15 mg/kg s.c. alone, ** p < 0.01 vs saline) is reported as 6.9 ± 0.7.

For the molecule `CNCCCN1c2ccccc2CCc2ccccc21` [desipramine], the “effect on HACU” value in data set [1] is “no effect”.

Broadly, the Kd is a measure of binding affinity in units of concentration. As for `Cn1nc(-c2cccc(F)c2)n(C)c1=S` [5-(3-Fluorophenyl)-2,4-dimethyl-3H-1,2,4-triazole-3-thione], in the data set with hippocampal slice, the “epileptiform activity in the hippocampal slice” value (“epileptiform activity” below) was “did not produce the epileptiform activity”. Also, the “Number of errors (5 = chance response), 0-Second Delay” value is reported as 0.50 ± 0.26 in data set [3] (1 mg/kg), 0.67 ± 0.33 in data set [3] (5 mg/kg) and 0.58 ± 0.19 in data set [3] (10 mg/kg). The “Number of errors (5 = chance response), 60-Second Delay” value in data set [3] (1 mg/kg, * p < 0.05 vs 0 seconds delay) is given as 4.42 ± 0.47; in data set [3] (5 mg/kg, * p < 0.05 vs 0 seconds delay), 2.33 ± 0.50; in data set [3] (10 mg/kg) it was 1.75 ± 0.43. The “reversal of time dependent deficit in the T-maze” value in data set [3] (60-second delay) is reported as “effectively reverses the time dependent deficit”. Further, the “Number of errors (12 = chance response), T-maze” value came to 5.0 ± 0.26 in data set [2] (1 mg/kg with scopolamine 0.15 mg/kg, * p < 0.05 vs saline) and 4.0 ± 0.8 in data set [2] (5 mg/kg with scopolamine 0.15 mg/kg, + p < 0.05 vs scopolamine). Also, in data set [2] (5 mg/kg), the “reversal of scopolamine-induced memory deficit in the T-maze” value is on record as “reverses the scopolamine-induced memory deficit”. Moreover, the results for the “Bmax ± SEM of [3H] hemicholinium-3 binding” value (shortened to “Bmax ± SEM”) in data set [4] (setting [6]) and in data set [4] (setting [7]) were 20.3 ± 1.2 fmol/mg Protein and 15.2 ± 3.0 fmol/mg Protein, respectively. Also, the “% Increase in Bmax” value in data set [4] (1 mg/kg i.p., n = 4, vs saline (Bmax 9.7)) came out at 109%; in data set [4] (2.5 mg/kg i.p., n = 4, vs saline (Bmax 9.7)), 57%. Also, the figures for the Kd in data set [4] (setting [6]) and in data set [4] (setting [7]) were 3.8 ± 0.6 nM and 6.5 ± 1.8 nM, respectively.

As for `CC(=C(CCOC(=O)C(C)C)SSC(CCOC(=O)C(C)C)=C(C)N(C=O)Cc1cnc(C)nc1N)N(C=O)Cc1cnc(C)nc1N` (stereo in doubt) [sulbutiamine], the “performance in operant conditioning memory task” value in the data set on memory in mice was “performance was enhanced”. Besides, in data set [5], the “hippocampal high affinity choline uptake” value is given as “increased”.

Regarding `CCc1c(C(=O)OC)ncc2[nH]c3cc(OC)c(OC)cc3c12` [methyl 6,7-dimethoxy-4-ethyl-β-carboline-3-carboxylate], the “epileptiform activity” value in the data set on hippocampal slice (setting [8]) was “produced epileptiform activity”. Moreover, the inverse agonist character entry with benzodiazepine receptor is on record as “full inverse agonists”.

As for `CNC(=O)c1cc2c(cn1)[nH]c1ccccc12` [N-methyl-β-carboline-3-carboxamide], the “epileptiform activity” value with hippocampal slice is given as “produced epileptiform activity”. Also, the inverse agonist character entry in the data set on benzodiazepine receptor is “partial inverse agonist”.

Turning to `CN(C)CCCN1c2ccccc2CCc2ccccc21` [imipramine], in data set [1], the “effect on HACU” value is given as “no effect”.

In the case of `CCOc1ccccc1OCC1CNCCO1` (stereo not drawn) [viloxazine], the “effect on HACU” value in data set [1] is “no effect”.

Consider `COC(=O)c1cc2c(cn1)[nH]c1ccccc12` [methyl β-carboline-3-carboxylate], for which the “epileptiform activity” value in the data set with hippocampal slice (setting [8]) is “produced epileptiform activity”. Besides, the inverse agonist character entry with benzodiazepine receptor was “full inverse agonists”.

In the case of `Cn1nc(-c2ccccc2)n(C)c1=S` [5-phenyl-2,4-dimethyl-3H-1,2,4-triazole-3-thione], in data set [4] (setting [9]), the “Bmax ± SEM” value came out at 19.0 ± 3.4 fmol/mg Protein and the Kd worked out at 2.8 ± 0.5 nM. Besides, the “% Increase in Bmax” value in data set [4] (5 mg/kg i.p., n = 7, vs saline (Bmax 11.9)) worked out at 60%.

For the molecule `Cc1cc(-c2ccccc2)nnc1NCCN1CCOCC1` [minaprine], the “effect on striatal, cortical and hippocampal HACU” value in data set [1] (30 mg/kg acute dose) was “weak effect”.

With `CCOC(=O)c1cc2c(cn1)[nH]c1ccccc12` [ethyl β-carboline-3-carboxylate], the “epileptiform activity” value in the data set on hippocampal slice (setting [8]) is “produced epileptiform activity”. Besides, the inverse agonist character entry in the data set with benzodiazepine receptor is “full inverse agonists”.

Take `CC(C)(CO)[C@@H](O)C(=O)NCCCC(=O)O` [pantoyl-GABA]: in data set [1], the “effect on cortical or hippocampal HACU” value was “stimulate cortical or hippocampal HACU”.

With `CC(C)N(CCNC(=O)CN1CCCC1=O)C(C)C` [pramiracetam], the “effect on cortical or hippocampal HACU” value in data set [1] was “stimulate cortical or hippocampal HACU”.

Regarding `NC(=O)CN1CC(O)CC1=O` (stereo not drawn) [oxiracetam], the “effect on cortical or hippocampal HACU” value in data set [1] is given as “stimulate cortical or hippocampal HACU”.

For `Cn1c(-c2ccccc2)n[nH]c1=S` [5-Phenyl-4-methyl-3H-1,2,4-triazole-3-thione], in data set [4] (setting [10]), the “Bmax ± SEM” value was 18.7 ± 3.2 fmol/mg Protein and the dissociation constant (Kd) turned out to be 2.14 ± 0.7 nM. Further, in data set [4] (setting [11]), the “% Increase in Bmax” value stood at 57%.

Take `Cn1nc(-c2cccc(C(F)(F)F)c2)n(C)c1=S` [5-(3-Trifluoromethylphenyl)-2,4-dimethyl-3H-1,2,4-triazole-3-thione]: in data set [4] (setting [10]), the “Bmax ± SEM” value is on record as 16.0 ± 3.0 fmol/mg Protein and the equilibrium dissociation constant (Kd) was determined as 1.5 ± 0.1 nM. Also, in data set [4] (setting [11]), the “% Increase in Bmax” value is reported as 35%.
